Data taken from patent US4666931A, “Benzofuran derivatives useful in treating diabetic complications” (Kaken Pharmaceutical Co., Ltd., priority 1984, dated 1987).
Where two headings read alike, the source gives them in different places.

Tests used:
[1] = test system: aggregation of the washed rabbit platelet by thrombin; assay: Platelet aggregation inhibiting activity (washed rabbit platelet, thrombin); format: cell-based; details: for IC50: Oryctolagus cuniculus, Platelet; for platelet aggregation inhibiting activity relative to Persantin: compared with Persantin (dipyridamole)
Protocol: Blood samples were collected from the auricular blood vessel of rabbits (white local breed), and washed platelets were prepared therefrom by the method of Baenziger et al. (N. L. Baenziger and P. W. Majerus, Methods Enzymol., 31, 149 to 155 (1974). The platelets were suspended in a 15 mM Tris-hydrochloric acid buffer with a final concentration of 6×10^8 cells/ml (Tris: tris(hydroxymethyl)aminomethane). Each test compound of the compound Nos. 5, 8, 9, 11, 23, 29, 30 and 33 and Persantin® was added thereto and incubation was carried out at 37° C. for 2 minutes. Then the platelets were stimulated by addition of thrombin (0.2 unit/ml of final concentration; made by Mochida Pharmaceutical Co.) and the aggregation inhibiting activity was estimated by the observation of the aggregation reaction using an aggregometer (made by Briston Co.).
The results are shown in Table 3 in terms of IC50 (50% inhibiton concentration in M).

[2] = Acute toxicity test in mice (oral); details: mouse, in vivo, po
Protocol: (§1) Acute toxicity test in mice was carried out on the benzofuran derivatives of the compound Nos. 3, 5, 9, 21, 23, 26, 29 and 34.

mice = assay: Acute toxicity test in mice (oral); details: mice, oral; for death up to the dose of 3 g/kg body weight: up to 3 g/kg
Protocol: as §1

[3] = target: T1, aldose reductase from rat lens (Rattus norvegicus, UniProt P07943); assay: Aldose reductase inhibiting activity; format: biochemical; details: DL-glyceraldehyde substrate, Table 2, read-out: IC50 (50% inhibition concentration in M)
T1 construct: the supernatant was prepared as the crude enzyme solution; from tissue; host or cells: lens of male Wistar rats, 10,000 g supernatant of homogenate (crude enzyme)
Protocol: Wistar male rats were sacrificed by decapitation and the lenses were taken out to be homogenized with a 0.1M phosphate buffer [pH 6.8, containing 1 mM of mercaptoethanol and 1 mM of nicotinamide-adenine dinucleotide phosphate (NADP)]. The homogenate was then centrifuged at 10,000 g for 15 minutes and the supernatant was prepared as the crude enzyme solution.

[4] = test system: production of malondialdehyde from arachidonic acid by rabbit platelets; assay: Arachidonic acid metabolism inhibiting activity: production of malondialdehyde from arachidonic acid by rabbit platelets; format: cell-based; details: Oryctolagus cuniculus, Platelet, arachidonic acid 0.2 mM, read-out: concentration showing 50% inhibition against the production of malondialdehyde from arachidonic acid
Protocol: Washed rabbit platelets prepared as in the platelet aggregation inhibiting activity test were suspended in 15 mM Tris-hydrochloric acid buffer with a final concentration of 1×10^8 cell/ml, to which each test compound of the compound Nos. 8, 13, 14, 19, 20, 23, 29, 30 and 33 were added and the resultant was preincubated at 37° C. for five minutes. Then arachidonic acid (a final concentration: 0.2 mM, made by Sigma Chemical Co.) was added thereto and the mixture was preincubated for 1 minute. An amount of the produced malondialdehyde was measured according to the thiobarbiturates method (Ed. Aoki and Shibata, Ketsuekigaku Kenkyukensaho, P 441 to 447).

cyclooxygenase = assay: Cyclooxygenase inhibition: malondialdehyde production from arachidonic acid, 9000 G supernatant of lung homogenate from guinea pig; format: biochemical; details: guinea pig lung 9000 G supernatant, compared with aspirin
Protocol: Lung from guinea pig was washed with physiological saline and homogenized in 0.1M Tris-hydrochloric acid buffer to prepare a supernatant by cooled centrifugation (9000 G).
The inhibiting activity against cyclooxygenase was measured by using the 9000 G supernatant as a source of cyclooxygenase in the presence of 1 mM epinephiline.

[5] = range for nine compounds, read-out: concentration showing 50% inhibition against the aggregation of the washed rabbit platelet by thrombin
[6] = washed rabbit platelets, thrombin 0.2 unit/ml, 37° C., Table 3, read-out: IC50 (50% inhibition concentration in M)

Question: With CCCCCOc1ccc(S(=O)(=O)NCC(=O)O)c2cc(C(C)=O)oc12 [Compound 5, 2-acetyl-4-(N-carboxymethylsulfamoyl)-7-n-pentyloxybenzofuran] as the compound, how does the IC50 [1, 5] read?
Answer: Its IC50 is 20 to 200 µM.

Question: And the “platelet aggregation inhibiting activity relative to Persantin” value [1]?
Answer: Its value is “equivalent to or more than”.

Question: What about the LD50 at 336 h [2] of the same compound?
Answer: The LD50 at 336 h was > 3000 mg/kg.

Question: And the “death up to the dose of 3 g/kg body weight” value (mice)?
Answer: Its value is “no death”.

Question: What about the IC50 [3] of the same compound?
Answer: Its IC50 is 0.05 µM.

Question: Which results are given for CCCCOc1ccc(S(=O)(=O)N(C)CC(=O)O)c2cc(C(C)=O)oc12 [Compound 9, 2-acetyl-4-(N-methyl-N-carboxymethylsulfamoyl)-7-n-butoxybenzofuran]?
Answer: IC50 [1, 5]: 20 to 200 µM; IC50 [1, 6]: 600 µM; platelet aggregation inhibiting activity relative to Persantin [1]: equivalent to or more than; LD50 at 336 h [2]: > 3000 mg/kg; death up to the dose of 3 g/kg body weight (mice): no death; IC50 [3]: 1 µM

Question: With CC(=O)c1cc2c(S(=O)(=O)NCC(=O)O)ccc(OCc3ccc([N+](=O)[O-])cc3)c2o1 [Compound 23, 2-acetyl-4-(N-carboxymethylsulfamoyl)-7-p-nitrobenzyloxybenzofuran] as the compound, how does the IC50 [4] read?
Answer: The IC50 was 10 to 100 µM.

Question: What about the “inhibition against malondialdehyde production relative to aspirin” value (cyclooxygenase) of the same compound?
Answer: Its value is “equivalent to or more than”.

Question: And the IC50 [1, 5]?
Answer: Its IC50 is 20 to 200 µM.

Question: What about the IC50 [1, 6] of the same compound?
Answer: Its IC50 is 80 µM.

Question: What about the “platelet aggregation inhibiting activity relative to Persantin” value [1] of the same compound?
Answer: The value was “equivalent to or more than”.

Question: And the LD50 at 336 h [2]?
Answer: Its LD50 at 336 h is > 2000 mg/kg.

Question: And the “death up to 2 g/kg body weight” value (mice)?
Answer: Its value is “no death”.

Question: And the IC50 [3]?
Answer: Its IC50 is 0.05 µM.

Question: For CC(=O)COc1ccc(S(=O)(=O)NCC(=O)O)c2cc(C(C)=O)oc12 [Compound 26, 2-acetyl-4-(N-carboxymethylsulfamoyl)-7-acetonyloxybenzofuran], which LD50 at 336 h [2] is on record?
Answer: Its LD50 at 336 h is > 2000 mg/kg.

Question: And the “death up to 2 g/kg body weight” value (mice)?
Answer: The value was “no death”.

Question: And the IC50 [3]?
Answer: The IC50 was 0.2 µM.

Question: Which IC50 [4] does the source give for CC(=O)c1cc2c(S(=O)(=O)NCC(=O)O)ccc(OCc3ccccc3)c2o1 [Compound 29, 2-acetyl-4-(N-carboxymethylsulfamoyl)-7-benzyloxybenzofuran] here?
Answer: Its IC50 is 10 to 100 µM.

Question: And the “inhibition against malondialdehyde production relative to aspirin” value (cyclooxygenase)?
Answer: Its value is “equivalent to or more than”.

Question: And the IC50 [1, 5]?
Answer: Its IC50 is 20 to 200 µM.

Question: What about the IC50 [1, 6] of the same compound?
Answer: The IC50 was 35 µM.

Question: What about the “platelet aggregation inhibiting activity relative to Persantin” value [1] of the same compound?
Answer: The value was “equivalent to or more than”.

Question: And the LD50 at 336 h [2]?
Answer: The LD50 at 336 h was > 2000 mg/kg.

Question: What about the “death up to 2 g/kg body weight” value (mice) of the same compound?
Answer: Its value is “no death”.

Question: And the IC50 [3]?
Answer: Its IC50 is 0.05 µM.

Question: For CC(=O)c1cc2c(S(=O)(=O)N(CC(=O)O)Cc3ccc(Cl)cc3)ccc(OCc3ccc(Cl)cc3)c2o1 [Compound 34, 2-acetyl-4-(N-p-chlorobenzyl-N-carboxymethylsulfamoyl)-7-p-chlorobenzyloxybenzofuran], which LD50 at 336 h [2] is on record?
Answer: The LD50 at 336 h was > 2000 mg/kg.

Question: What about the “death up to 2 g/kg body weight” value (mice) of the same compound?
Answer: Its value is “no death”.

Question: What about the IC50 [3] of the same compound?
Answer: Its IC50 is 0.8 µM.
